From patent US9363996B2, “Compositions and method for blocking ethylene response in field crops using 3-(cy-clopropyl-l-enyl)-propanoic salt” (Yissum Research Development Company of the Hebrew …, priority 2009, dated 2016)

Columns and labels:
[1] = system: mature cotton leaf explants; assay: Ethylene-induced petiole abscission of mature cotton leaf explants; type: in vivo, cotton (Gossyium hirsutum barbadense L.); conditions: for abscission: day 5
Procedure: (§1) (1) Abscission—This is a very sensitive model system for studying the effects of plant hormones. Ethylene induces the process of abscission, while auxin delays it. In the laboratory the experimental system is based on plant organ explants, which include the abscission zone. Abscission is induced by exposure to ethylene and at the termination of the experiment the number of abscised organs, usually either leaf blades or petioles are counted and the fraction of abscission is calculated. In the case of fruit, the decrease in fruit retention force is analyzed. In cotton, when WS-CPD (the ethylene-action antagonist herein disclosed) is tested, the whole plants or explants are pretreated by spraying with the antagonist, dissolved in a phosphate buffer solution (10-20 mM, pH 7.0) including 0.1% commercially available Kinetic™ as surfactant, and left to incubate for a predetermined time, usually between 6 and 24 h. The plants or explants are then further exposed for 24 h to ethylene gas (5 to 20 μL L^−1). The plants or explants are then ventilated and incubated for the required time under controlled conditions. At the end of the experiment the percentage of abscission is determined. (2) Chlorophyll degradation—This is a standard model for studying senescence. Plant material (whole plants, excised leaves or leaf discs) are pretreated. In cotton, tobacco and wheat, when WS-CPD is tested, the whole plants or explants are pretreated by spraying with the antagonist, dissolved in phosphate buffer solution (10-20 mM, pH 7.0) including 0.1% commercially available Kinetic™ surfactant, and left to incubate for a predetermined time, usually between 6 and 241. The plants or explants are then further exposed for 24 h to ethylene gas (1 to 100 μL L^−1), or sprayed with Ethephon™ (wheat; 250 to 750 μL L^−1). The plants or explants are then ventilated and incubated for the required time under controlled conditions. At the end of the experiment a dimethylsulfoxide (DMSO) extract of the plant tissue is prepared, and the chlorophyll content of the extract is determined by spectrophotometric analysis. The chlorophyll content is reported either on a fresh, dry weight basis, or on a surface area basis. (3) Epinasty—This is also one of the classical methods for studying ethylene effects in plants. The extent of ethylene-induced epinasty of leaves is determined by measuring the change of the angle between the petiole and the stem shoot or blade. After exposure of the intact plant to ethylene, the upright grown leaves bend downward. The increase in the angle values (degrees) between petiole and the stem is used as a measure of the effect of the ethylene. […]

tobacco seedlings = assay: Ethylene-induced leaf yellowing (senescence) of young tobacco seedlings; type: in vivo, tobacco (Nicotiana tabacum var. 'Samsun'); conditions: for ethylene-induced senescence (leaf yellowing): ethylene 10 μL L^−1
Procedure: as §1, with “The plants or explants are then further exposed for 24 h to ethylene gas (1 to 100 μL L^−1), or sprayed with Ethephon™ (wheat; 250 to 750 μL L^−1). The plants or explants are then ventilated and incubated for the required time under controlled conditions.” left out, “The chlorophyll content is reported either on a fresh, dry weight basis, or on a surface area basis. (3) Epinasty—This is also one of the classical methods for studying ethylene effects in plants.” left out, “blade.” for “blade. After exposure of the intact plant to ethylene, the upright grown leaves bend downward. The increase in the angle values (degrees) between petiole and the stem is used as a measure of the effect of the ethylene.”

wheat seedlings = assay: Third leaf growth of young wheat seedlings exposed to ethylene; type: in vivo, wheat (Triticum turgidum var. 'Gdera')
wheat plants [2] = assay: Ethephon-induced flag leaf epinasty of wheat plants after spike heading; type: in vivo, wheat (Triticum turgidum var. 'Gdera'); conditions: WS-CPD 135 and 415 μg mL^−1 pretreatment; Ethephon 750 μL L^−1
Procedure: (1) Abscission—This is a very sensitive model system for studying the effects of plant hormones. Ethylene induces the process of abscission, while auxin delays it. In the laboratory the experimental system is based on plant organ explants, which include the abscission zone. Abscission is induced by exposure to ethylene and at the termination of the experiment the number of abscised organs, usually either leaf blades or petioles are counted and the fraction of abscission is calculated. In the case of fruit, the decrease in fruit retention force is analyzed. In cotton, when WS-CPD (the ethylene-action antagonist herein disclosed) is tested, the whole plants or explants are pretreated by spraying with the antagonist, dissolved in a phosphate buffer solution (10-20 mM, pH 7.0) including 0.1% commercially available Kinetic™ as surfactant, and left to incubate for a predetermined time, usually between 6 and 24 h. […] At the end of the experiment the percentage of abscission is determined. […] At the end of the experiment a dimethylsulfoxide (DMSO) extract of the plant tissue is prepared, and the chlorophyll content of the extract is determined by spectrophotometric analysis. […] The extent of ethylene-induced epinasty of leaves is determined by measuring the change of the angle between the petiole and the stem shoot or blade. […]

wheat plants [3] = assay: Ethephon-induced chlorophyll degradation in wheat leaves, glumes and chaffs; type: in vivo, wheat (Triticum turgidum var. 'Gdera'); conditions: for Ethephon-induced decrease in the content of chlorophyll: WS-CPD 45 μg mL^−1
Procedure: as §1, with “ethylene. When WS-CPD is tested on cotton and wheat plants, the whole plants are pretreated by spraying with the antagonist dissolved in phosphate buffer solution (10-20 mM, pH 7.6) including 0.1% Kinetic™ as surfactant, and left to incubate for a predetermined time, usually between 6 and 24 h. The plants are then further exposed for 24 h to ethylene gas (cotton, 5 to 10 μL L^−1), or sprayed with Ethephon™ (wheat, 250 to 750 μL L^−1). The plants are then ventilated and incubated for the required time under controlled conditions. The epinastic effect is expressed by measuring the degree values of the downward curvature between the blade and petiole (cotton, FIGS. 1-3) or between the blade and the stem (wheat, FIGS. 31 and 32). (4) Wheat Grain yield—This is a common test of the effects of exposure of monocot plants either to environmental stresses such as drought that induce senescence by increasing endogenous ethylene production. Excessive internal or external ethylene will accelerate senescence which will lead to reduced grain yield. In this project the intact plants were grown in the greenhouse up to the spike hading at milky stage I and II. The plants were then sprayed with the dissolved WS-CPD in phosphate buffer solution (10 mM, pH 7.6) including 0.1% Kinetic™ as surfactant. Young Cotton Seedlings” for “ethylene.”

Solubility in water = type: physicochemical; conditions: 25° C.
Procedure: WS-CPD is highly soluble in water at 25° C. (≧400 mg mL^−1), FIG. 63. Upon heating, decomposition without melting occurs, beginning at 265-270° C.

solubility (Solubility in water): ≥ 400 mg/mL
Compound: O=C([O-])CCC1=CC1.[Na+] [WS-CPD, 3-cyclopropyl-1-enyl-propanoic sodium salt]
abscission percentage ([1]; WS-CPD 90 μg mL^−1): slightly lower than that of the untreated air control | abscission ([1]; WS-CPD 10, 30 and 90 μg mL^−1): 100% | decrease of abscission ([1]; WS-CPD 10 and 30 μg mL^−1, after 3 days of incubation, ethylene 10 μL L^−1): 20% | abscission ([1]; WS-CPD 240-480 μg mL^−1): 50% | ethylene-induced senescence (leaf yellowing) (tobacco seedlings; WS-CPD 14 μg mL^−1): antagonized the ethylene-induced senescence only in mature leaves | ethylene-induced senescence (leaf yellowing) (tobacco seedlings; WS-CPD 127 μg mL^−1, young leaves): slightly effective | leaf yellowing (tobacco seedlings; WS-CPD 14 to 127 μg mL^−1, ethylene 20 μL L^−1): very significantly inhibited | reversal of the inhibitory effect of ethylene on third leaf growth (wheat seedlings; WS-CPD 40 μg mL^−1, 1.6 ethylene): 100% | inhibitory effect of ethylene on third leaf growth (wheat seedlings; WS-CPD 4 and 40 μg mL^−1 spray at day 10, ethylene 1.6 to 40 μg L^−1 (so in the source) 24 h later for two days): effectively antagonized | Ethephon-induced flag leaf epinasty (wheat plants [2]): partly protected | Ethephon-induced chlorophyll degradation in the glumes and chaffs (wheat plants [3]; WS-CPD 62 μg mL^−1, Ethephon 250 μL L^−1): completely reversed | decrease of chlorophyll content in the flag leaf (wheat plants [3]; WS-CPD 312 μg mL^−1, Ethephon 250 μL L^−1, milky stage I): almost completely antagonized | chlorophyll decrease induced by Ethephon (wheat plants [3]; WS-CPD 415 μg mL^−1, Ethephon 750 μL L^−1, both types of leaves, milky stage I): only slightly antagonized | Ethephon-induced decrease of chlorophyll (wheat plants [3]; WS-CPD 12 to 62 μg mL^−1, milky stage I, mainly flag leaf, also leaf II): significantly reduced | effect on chlorophyll in leaves treated with Ethephon (wheat plants [3]; WS-CPD 15 to 135 μg L^−1 (so in the source), Ethephon 750 μL L^−1, milky stage II): not effective | decrease in the chlorophyll titer in the treated spike-chaffs (wheat plants [3]; WS-CPD 15 to 135 μg L^−1 (so in the source), Ethephon 750 μL L^−1, milky stage II, insignificant): 3% | Ethephon-induced decrease in the content of chlorophyll (wheat plants [3]; chaffs, Ethephon 750 μL L^−1): markedly antagonized | increase of chlorophyll content above control untreated plants (wheat plants [3]; chaffs, WS-CPD 62 μg mL^−1, Ethephon 250 μL L^−1): 10% | Ethephon-induced decrease in the content of chlorophyll (wheat plants [3]; glumes, Ethephon 750 μL L^−1): much less effective | increase of chlorophyll content above control untreated plants (wheat plants [3]; glumes, WS-CPD 62 μg mL^−1, Ethephon 250 μL L^−1): 60%
